Structures can show the parent of a compound that is named as a salt. Where two headings read alike, the source gives them in different places.
Key:
[1] = test system: IL-17 production by CD4 T cells; experiment: Human Th17 assay (IL-17 production by CD4 T cells under Th17 differentiation); type: cell-based; conditions: read-out: Human Th17 Assay, IC50 μM
Excerpt: The human Th17 assay tests the effect of RORγt modulatory compounds on IL-17 production by CD4 T cells under conditions which favor Th17 differentiation.
Total CD4^+ T cells were isolated from the peripheral blood mononuclear cells (PBMC) of healthy donors using a CD4^+ T cell isolation kit II, following the manufacturer's instructions (Miltenyi Biotec). Cells were resuspended in a medium of RPMI-1640 supplemented with 10% fetal bovine serum, penicillin, streptomycin, glutamate, and β-mercaptoethanol and were added to 96-well plates at 1.5×10^5 per 100 μL per well. 50 μL of compound at titrated concentrations in DMSO were added into each well at final DMSO concentration at 0.2%. Cells were incubated for 1 hour, then 50 μL of Th17 cell differentiation medium was added to each well. The final concentrations of antibodies and cytokines (R&D Systems) in differentiation medium were: 3×10^6/mL anti-CD3/CD28 beads (prepared using human T cell activation/expansion kit, Miltenyi Biotec), 10 μg/mL anti-IL4, 10 μg/mL anti-IFNγ, 10 ng/mL IL1β, 10 ng/mL IL23, 50 ng/mL IL6, 3 ng/mL TGFβ and 20 U/mL IL2. Cells were cultured at 37° C. and 5% CO2 for 3 days. Supernatants were collected and the accumulated IL-17 in culture was measured by using MULTI-SPOT® Cytokine Plate following manufacture's instruction (Meso Scale Discovery). The plate was read using Sector Imager 6000, and IL-17 concentration was extrapolated from the standard curve. The IC50s were determined by GraphPad.

human RORγt LBD = human RORγt LBD (Homo sapiens (Human), UniProt P51449); experiment: RORγt reporter assay (GAL4-RORγt LBD luciferase in HEK293T cells); type: cell-based; conditions: for IC50: 24 hours compound treatment; for inhibition at 6 µM: HEK-293T, read-out: RORγt reporter Assay, % inhibition @ 6 μM, HEK293T cells, 6 μM
In short: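 HEK293T cells transiently co-transfected with GAL4-DBD–wild-type human RORγt LBD (pBIND) and GAL4-responsive firefly luciferase reporter (pGL4.31); renilla luciferase from pBIND normalises transfection/viability. Cells in phenol-red-free DMEM, 5% lipid-reduced FCS, treated with compound 24 h. Firefly/renilla ratio plotted against compound concentration.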

[2] = biological target: human RORγt ligand binding domain (RORγt LBD) (Homo sapiens (Human), UniProt P51449); experiment: RORγt ThermoFluor assay (thermal shift binding affinity); conditions: estimated from thermal shift
In short: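 Thermal shift used 0.065 mg/mL RORγt LBD with 60 μM 1,8-ANS in 100 mM Hepes pH 7.0, 10 mM NaCl, 2.5 mM GSH and 0.002% Tween-20, heated at 1 °C/min. Fluorescence was excited at 380–400 nm and emission read at 500 nm.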

human RORγt ligand binding domain (RORγt LBD), sequence (P51449 other isoform, or with tags, fused parts or gaps): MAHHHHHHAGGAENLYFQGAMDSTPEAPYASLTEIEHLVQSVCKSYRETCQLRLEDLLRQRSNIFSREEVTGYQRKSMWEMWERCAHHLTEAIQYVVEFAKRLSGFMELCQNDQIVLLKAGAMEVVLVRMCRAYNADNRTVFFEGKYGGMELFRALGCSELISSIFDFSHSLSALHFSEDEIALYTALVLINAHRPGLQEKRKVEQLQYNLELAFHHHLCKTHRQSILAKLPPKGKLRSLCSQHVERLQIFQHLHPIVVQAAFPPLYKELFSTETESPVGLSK
human RORγt LBD, sequence (P51449 258-518): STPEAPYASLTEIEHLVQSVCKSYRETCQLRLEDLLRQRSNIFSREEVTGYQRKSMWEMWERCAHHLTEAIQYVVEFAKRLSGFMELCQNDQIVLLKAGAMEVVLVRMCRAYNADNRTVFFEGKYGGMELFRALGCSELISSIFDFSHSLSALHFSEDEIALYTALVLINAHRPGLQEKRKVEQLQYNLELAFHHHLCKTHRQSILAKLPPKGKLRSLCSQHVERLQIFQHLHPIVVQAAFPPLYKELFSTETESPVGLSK

SMILES | IC50 ([1]; Homo sapiens, CD4+ T, 72 h) | IC50 (human RORγt LBD; HEK293T cells) | inhibition at 6 µM (human RORγt LBD) | Kd [2] | other results
COc1nc2ccc(C(O)(c3cncn3C)C3CCN(C(C)=O)CC3)cc2c(Cl)c1Cc1ccc(-n2cccn2)cc1 (single isomer, unassigned) [Example 60C, 1-(4-((3-(4-(1H-Pyrazol-1-yl)benzyl)-4-chloro-2-methoxyquinolin-6-yl)(hydroxy)(1-methyl-1H-imidazol-5-yl)methyl)piperidin-1-yl)ethanone] |  |  |  |  | IC50 ([1]; human CD4+ T cells, IL-17 after 3 days): 0.16 µM
COc1nc2ccc(C(O)(c3ccc(C(F)(F)F)nc3)c3cncn3C)cc2c(Cl)c1Cc1ccc(C(F)(F)F)cc1 (single isomer, unassigned) [Example 62B, (4-Chloro-2-methoxy-3-(4-(trifluoromethyl)benzyl)quinolin-6-yl)(1-methyl-1H-imidazol-5-yl)(6-(trifluoromethyl)pyridin-3-yl)methanol] | 0.1 µM |  |  |  | 
COc1nc2ccc(C(O)(c3cncn3C)C3CCN(C(C)=O)CC3)cc2c(Cl)c1Cc1ccc(-n2cccn2)cc1 (single isomer, unassigned) [Example 60B, 1-(4-((3-(4-(1H-Pyrazol-1-yl)benzyl)-4-chloro-2-methoxyquinolin-6-yl)(hydroxy)(1-methyl-1H-imidazol-5-yl)methyl)piperidin-1-yl)ethanone] |  |  |  |  | IC50 ([1]; Homo sapiens, CD4+ T, 72 h, human CD4+ T cells, IL-17 after 3 days): 0.17 µM
COc1nc2ccc(C(O)(c3ccc(C(F)(F)F)nc3)c3cncn3C)cc2c(Cl)c1Cc1ccc(-n2cccn2)cc1 (centres unmarked) [Example 35A, (3-(4-(1H-Pyrazol-1-yl)benzyl)-4-chloro-2-methoxyquinolin-6-yl)(1-methyl-1H-imidazol-5-yl)(6-(trifluoromethyl)pyridin-3-yl)methanol.TFA] | 0.3 µM |  |  |  | 
COc1nc2ccc(C(O)(c3ccc(Cl)cc3)c3cncn3C)cc2c(Cl)c1Cc1ccc(-n2cccn2)cc1 (single isomer, unassigned) [Example 33C, (3-(4-(1H-pyrazol-1-yl)benzyl)-4-chloro-2-methoxyquinolin-6-yl)(4-chlorophenyl)(1-methyl-1H-imidazol-5-yl)methanol] | 0.067 µM |  |  |  | 
COc1nc2ccc(C(O)(c3ccc(Cl)cc3)c3cncn3C)cc2c(Cl)c1Cc1ccc(C#N)cc1 (single isomer, unassigned) [Example 63C, 4-((4-Chloro-6-((4-chlorophenyl)(hydroxy)(1-methyl-1H-imidazol-5-yl)methyl)-2-methoxyquinolin-3-yl)methyl)benzonitrile] | 0.038 µM |  |  |  | 
COc1nc2ccc(C(O)(c3ccc(C(F)(F)F)nc3)c3cncn3C)cc2c(Cl)c1Cc1ccc(-n2cccn2)cc1 (single isomer, unassigned) [Example 35B, (3-(4-(1H-pyrazol-1-yl)benzyl)-4-chloro-2-methoxyquinolin-6-yl)(1-methyl-1H-imidazol-5-yl)(6-(trifluoromethyl)pyridin-3-yl)methanol] | 0.074 µM |  |  |  | 
COc1nc2ccc(C(O)(c3ccc(C(F)(F)F)nc3)c3cncn3C)cc2c(Cl)c1Cc1ccc(-n2cccn2)cc1 (single isomer, unassigned) [Example 35C, (3-(4-(1H-pyrazol-1-yl)benzyl)-4-chloro-2-methoxyquinolin-6-yl)(1-methyl-1H-imidazol-5-yl)(6-(trifluoromethyl)pyridin-3-yl)methanol] |  |  |  |  | IC50 [1]: 0.051 µM
COc1nc2ccc(C(O)(c3ccc(C(F)(F)F)nc3)c3cncn3C)cc2c(Cl)c1Cc1ccc(C(F)(F)F)cc1 (single isomer, unassigned) [Example 62C, (4-Chloro-2-methoxy-3-(4-(trifluoromethyl)benzyl)quinolin-6-yl)(1-methyl-1H-imidazol-5-yl)(6-(trifluoromethyl)pyridin-3-yl)methanol] |  |  |  |  | IC50 [1]: 0.064 µM
COc1nc2ccc(C(O)(c3cnnn3C)c3cnnn3C)cc2c(Cl)c1Cc1ccc(-n2cccn2)cc1 [Example 61, (3-(4-(1H-Pyrazol-1-yl)benzyl)-4-chloro-2-methoxyquinolin-6-yl)bis(1-methyl-1H-1,2,3-triazol-5-yl)methanol] | 0.0042 µM |  |  |  | 
COc1nc2ccc(C(O)(c3ccc(Cl)cc3)c3cncn3C)cc2c(Cl)c1Cc1ccc(-n2cccn2)cc1 (centres unmarked) [Example 33A, (3-(4-(1H-Pyrazol-1-yl)benzyl)-4-chloro-2-methoxyquinolin-6-yl)(4-chlorophenyl)(1-methyl-1H-imidazol-5-yl)methanol] | 0.14 µM |  |  |  | 
CCc1nc2ccc(C(O)(c3cnnn3C)C3CN(C(=O)OC(C)(C)C)C3)cc2c(Cl)c1Cc1ccc(C(F)(F)F)cc1 (centres unmarked) [Example 89, tert-Butyl 3-((4-chloro-2-ethyl-3-(4-(trifluoromethyl)benzyl)quinolin-6-yl)(hydroxy)(1-methyl-1H-1,2,3-triazol-5-yl)methyl)azetidine-1-carboxylate] |  | 0.021 µM | 102% | 0.00077 µM | 
CCOc1nc2ccc(C(O)(c3cncs3)c3cncn3C)cc2cc1Cc1ccc(OC)cc1 (centres unmarked) [Example 24, (2-Ethoxy-3-(4-methoxybenzyl)quinolin-6-yl)(1-methyl-1H-imidazol-5-yl)(thiazol-5-yl)methanol.TFA] |  | > 6 µM | 35% | 0.75 µM | 
OC(c1cccnc1)(c1ccc2nc(Cl)c(Cc3cccc(Cl)c3)cc2c1)c1cncs1 (centres unmarked) [Example 10] |  | 2.3 µM | 77% | 0.099 µM | 
COc1nc2c(C)cc(C(O)(c3cncn3C)c3cncn3C)cc2c(Cl)c1Cc1ccc(-n2cccn2)cc1 [Example 56, (3-(4-(1H-Pyrazol-1-yl)benzyl)-4-chloro-2-methoxy-8-methylquinolin-6-yl)bis(1-methyl-1H-imidazol-5-yl)methanol] |  | 0.012 µM | 102% | 0.00029 µM | 
COc1ccc(Cc2c(Cl)nc3ccc(C(O)(c4ccc(Cl)cc4)c4cncn4C)cc3c2Cl)cc1 (centres unmarked) [Example 12, (4-Chlorophenyl)(2,4-dichloro-3-(4-methoxybenzyl)quinolin-6-yl)(1-methyl-1H-imidazol-5-yl)methanol.TFA] |  | ~7 µM | 77% | 0.016 µM | 
COc1nc2ccc(C(N)(c3ccc(C)nc3C)c3cnnn3C)cc2c(Cl)c1Cc1ccc(C(F)(F)F)cc1 (single isomer, unassigned) [Example 87B, (4-Chloro-2-methoxy-3-(4-(trifluoromethyl)benzyl)quinolin-6-yl)(2,6-dimethylpyridin-3-yl)(1-methyl-1H-1,2,3-triazol-5-yl)methanamine] |  | 0.85 µM | 95% | 2.3 µM | 
Cn1cncc1C(O)(c1ccc(C(F)(F)F)nc1)c1ccc2nc(C#N)c(Cc3ccc(-n4cccn4)cc3)cc2c1 (single isomer, unassigned) [Example 70C, 3-(4-(1H-Pyrazol-1-yl)benzyl)-6-(hydroxy(1-methyl-1H-imidazol-5-yl)(6-(trifluoromethyl)pyridin-3-yl)methyl)quinoline-2-carbonitrile] |  | 1.6 µM |  | 16 µM | RORγt reporter Assay, % inhibition @ 6 μM (human RORγt LBD; HEK293T cells, 6 μM): 85%
Cc1ccc(C(O)(c2ccc3nc(C#N)c(Cc4ccc(C(F)(F)F)cc4)c(C#N)c3c2)c2cnnn2C)c(C)n1 (single isomer, unassigned) [Example 88B, 6-((2,6-Dimethylpyridin-3-yl)(hydroxy)(1-methyl-1H-1,2,3-triazol-5-yl)methyl)-3-(4-(trifluoromethyl)benzyl)quinoline-2,4-dicarbonitrile] |  | 0.14 µM | 96% | 0.029 µM | 

— US9290476B2, “Methylene linked quinolinyl modulators of RORγt” (Janssen Pharmaceutica NV, priority 2012, dated 2016)
